# Test results from the kinase profiling compilation of Christmann-Franck et al. (2016).
# Key:
# Assay in all cases: radiometric filter-binding kinase assay
# ROCK2 (human) = ROCK2 (human) (UniProt O75116); details: compound 10.0 µM; ATP 20 µM
# CAMKK2 (human) = CAMKK2 (human) (UniProt Q96RR4); details: compound 10.0 µM; ATP 20 µM
# DYRK3 (human) = DYRK3 (human) (UniProt O43781); details: ATP 5 µM
# PIM2 (human) = PIM2 (human) (UniProt Q9P1W9); details: ATP 5 µM
# BRSK2 (human) = BRSK2 (human) (UniProt Q8IWQ3); details: compound 1.0 µM; ATP 50 µM
# [1] = test system: AKT1 (human), P31749 [S473D]; details: compound 10.0 µM; ATP 5 µM
# MAPK11 (human) = MAPK11 (human) (UniProt Q15759); details: compound 10.0 µM; ATP 20 µM
# PDPK1 (human) = PDPK1 (human) (UniProt O15530)
# CDK2 CCNA2 (human) = CDK2 CCNA2 (human) (UniProt P24941+P20248); details: compound 1.0 µM; ATP 20 µM
# HIPK3 (human) = HIPK3 (human) (UniProt Q9H422); details: ATP 20 µM
# PIM1 (human) = PIM1 (human) (UniProt P11309); details: ATP 20 µM
# SRC (chicken) = details: compound 10.0 µM; ATP 50 µM; accession and sequence are those of the human protein
# MKNK2 (human) = MKNK2 (human) (UniProt Q9HBH9); details: compound 10.0 µM; ATP 50 µM
# MAPK15 (human) = MAPK15 (human) (UniProt Q8TD08); details: compound 10.0 µM; ATP 5 µM
# NEK7 (human) = NEK7 (human) (UniProt Q8TDX7); details: compound 1.0 µM; ATP 20 µM
# HIPK2 (human) = HIPK2 (human) (UniProt Q9H2X6); details: ATP 5 µM
# LCK (mouse) = details: ATP 50 µM, accession and sequence are those of the human protein
# CHEK1 (human) = CHEK1 (human) (UniProt O14757); details: compound 10.0 µM; ATP 20 µM
# MKNK1 (human) = MKNK1 (human) (UniProt Q9BUB5); details: ATP 50 µM
# MAPK3 (human) = MAPK3 (human) (UniProt P27361); details: ATP 5 µM
# AURKC (human) = AURKC (human) (UniProt Q9UQB9); details: ATP 5 µM
# MYLK (human) = MYLK (human) (UniProt Q15746); details: ATP 50 µM
# MAPK10 (human) = MAPK10 (human) (UniProt P53779); details: ATP 50 µM
# PRKCA (human) = PRKCA (human) (UniProt P17252); details: ATP 20 µM
# MELK (human) = MELK (human) (UniProt Q14680); details: ATP 50 µM
# PRKCG (human) = PRKCG (human) (UniProt P05129); details: ATP 5 µM
# PAK7 (human) = PAK7 (human) (UniProt Q9P286); details: ATP 20 µM
# GSK3B (human) = GSK3B (human) (UniProt P49841); details: compound 1.0 µM; ATP 5 µM
# RPS6KA1 KD1 KD2 (human) = RPS6KA1 KD1 KD2 (human) (UniProt Q15418); details: ATP 50 µM
# Chain of RPS6KA1 KD1 KD2 (human) (Q15418 whole entry, looked up): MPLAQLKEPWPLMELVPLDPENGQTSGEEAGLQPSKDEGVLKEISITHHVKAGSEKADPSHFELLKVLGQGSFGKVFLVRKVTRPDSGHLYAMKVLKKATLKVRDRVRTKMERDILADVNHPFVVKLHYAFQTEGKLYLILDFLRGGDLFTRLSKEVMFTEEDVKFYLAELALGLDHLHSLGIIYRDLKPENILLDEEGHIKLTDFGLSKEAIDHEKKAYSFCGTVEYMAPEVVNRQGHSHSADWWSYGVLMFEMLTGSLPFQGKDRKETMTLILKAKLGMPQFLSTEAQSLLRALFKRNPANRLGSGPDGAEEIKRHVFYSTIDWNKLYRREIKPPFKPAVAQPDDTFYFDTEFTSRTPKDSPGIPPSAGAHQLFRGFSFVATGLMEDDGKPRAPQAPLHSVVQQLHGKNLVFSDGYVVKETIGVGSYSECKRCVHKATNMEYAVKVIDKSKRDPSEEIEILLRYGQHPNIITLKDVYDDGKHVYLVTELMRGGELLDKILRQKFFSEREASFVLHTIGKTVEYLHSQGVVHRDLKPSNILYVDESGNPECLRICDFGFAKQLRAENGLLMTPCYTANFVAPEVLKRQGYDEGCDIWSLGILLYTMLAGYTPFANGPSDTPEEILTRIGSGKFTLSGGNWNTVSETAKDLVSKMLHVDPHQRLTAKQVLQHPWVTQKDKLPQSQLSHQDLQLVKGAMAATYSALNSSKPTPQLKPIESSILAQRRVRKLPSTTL
# Chain of PDPK1 (human) (O15530 whole entry, looked up): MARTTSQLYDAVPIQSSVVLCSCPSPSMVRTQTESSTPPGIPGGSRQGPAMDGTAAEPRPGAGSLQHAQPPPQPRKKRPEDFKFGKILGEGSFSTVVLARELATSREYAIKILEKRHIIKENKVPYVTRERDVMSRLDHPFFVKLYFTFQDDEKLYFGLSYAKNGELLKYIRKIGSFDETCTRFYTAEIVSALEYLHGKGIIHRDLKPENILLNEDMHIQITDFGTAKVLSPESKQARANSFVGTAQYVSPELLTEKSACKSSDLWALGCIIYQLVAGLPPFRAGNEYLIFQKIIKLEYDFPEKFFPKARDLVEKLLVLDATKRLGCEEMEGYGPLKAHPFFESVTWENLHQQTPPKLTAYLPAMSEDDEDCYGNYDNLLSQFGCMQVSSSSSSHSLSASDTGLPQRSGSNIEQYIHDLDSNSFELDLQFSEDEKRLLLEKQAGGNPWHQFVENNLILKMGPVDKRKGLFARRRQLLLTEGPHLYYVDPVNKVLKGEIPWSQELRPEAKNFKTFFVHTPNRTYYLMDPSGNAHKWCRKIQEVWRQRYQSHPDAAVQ
# Chain of DYRK3 (human) (O43781 whole entry, looked up): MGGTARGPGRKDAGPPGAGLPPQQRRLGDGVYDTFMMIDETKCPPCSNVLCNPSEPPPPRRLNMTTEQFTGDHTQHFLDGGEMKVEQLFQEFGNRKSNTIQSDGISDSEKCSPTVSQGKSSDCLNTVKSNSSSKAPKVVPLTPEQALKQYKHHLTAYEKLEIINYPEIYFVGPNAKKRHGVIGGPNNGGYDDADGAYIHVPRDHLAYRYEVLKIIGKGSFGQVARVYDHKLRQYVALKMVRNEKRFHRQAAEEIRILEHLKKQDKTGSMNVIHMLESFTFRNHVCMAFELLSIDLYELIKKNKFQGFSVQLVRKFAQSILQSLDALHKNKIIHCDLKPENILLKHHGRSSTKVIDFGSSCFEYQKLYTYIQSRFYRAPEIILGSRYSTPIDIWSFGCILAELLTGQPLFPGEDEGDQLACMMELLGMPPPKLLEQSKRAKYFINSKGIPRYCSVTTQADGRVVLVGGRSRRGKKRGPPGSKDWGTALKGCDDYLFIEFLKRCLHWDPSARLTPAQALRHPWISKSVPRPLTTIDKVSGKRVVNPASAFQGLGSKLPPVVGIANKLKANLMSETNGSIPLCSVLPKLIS
# Chain of PAK7 (human) (Q9P286 whole entry, looked up): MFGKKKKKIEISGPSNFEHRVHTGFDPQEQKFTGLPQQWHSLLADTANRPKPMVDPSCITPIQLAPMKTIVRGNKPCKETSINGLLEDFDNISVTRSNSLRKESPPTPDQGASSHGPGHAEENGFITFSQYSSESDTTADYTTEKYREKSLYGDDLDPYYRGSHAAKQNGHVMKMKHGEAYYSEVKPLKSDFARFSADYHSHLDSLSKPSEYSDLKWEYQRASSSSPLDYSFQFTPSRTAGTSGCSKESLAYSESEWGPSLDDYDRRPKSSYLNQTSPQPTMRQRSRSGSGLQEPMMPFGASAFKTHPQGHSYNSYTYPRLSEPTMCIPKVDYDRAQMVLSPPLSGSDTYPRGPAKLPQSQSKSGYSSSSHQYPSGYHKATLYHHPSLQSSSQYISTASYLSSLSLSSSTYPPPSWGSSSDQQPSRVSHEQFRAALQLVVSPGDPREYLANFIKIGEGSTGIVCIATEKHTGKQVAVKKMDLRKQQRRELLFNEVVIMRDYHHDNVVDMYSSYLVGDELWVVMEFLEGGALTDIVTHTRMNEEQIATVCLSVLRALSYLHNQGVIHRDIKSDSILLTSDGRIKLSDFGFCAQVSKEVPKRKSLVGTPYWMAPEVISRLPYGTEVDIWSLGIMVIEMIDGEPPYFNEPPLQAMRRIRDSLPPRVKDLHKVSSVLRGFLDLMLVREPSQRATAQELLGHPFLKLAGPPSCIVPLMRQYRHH
# Chain of PIM2 (human) (Q9P1W9 whole entry, looked up): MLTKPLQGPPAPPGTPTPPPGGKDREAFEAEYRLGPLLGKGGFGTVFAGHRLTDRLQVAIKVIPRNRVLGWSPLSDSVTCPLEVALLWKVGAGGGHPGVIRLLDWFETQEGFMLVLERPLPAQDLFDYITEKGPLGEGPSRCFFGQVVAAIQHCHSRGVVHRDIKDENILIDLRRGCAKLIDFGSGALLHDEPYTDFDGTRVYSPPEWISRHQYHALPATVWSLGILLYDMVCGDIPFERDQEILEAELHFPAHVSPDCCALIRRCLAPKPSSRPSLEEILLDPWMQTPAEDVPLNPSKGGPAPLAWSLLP
# Chain of HIPK2 (human) (Q9H2X6 whole entry, looked up): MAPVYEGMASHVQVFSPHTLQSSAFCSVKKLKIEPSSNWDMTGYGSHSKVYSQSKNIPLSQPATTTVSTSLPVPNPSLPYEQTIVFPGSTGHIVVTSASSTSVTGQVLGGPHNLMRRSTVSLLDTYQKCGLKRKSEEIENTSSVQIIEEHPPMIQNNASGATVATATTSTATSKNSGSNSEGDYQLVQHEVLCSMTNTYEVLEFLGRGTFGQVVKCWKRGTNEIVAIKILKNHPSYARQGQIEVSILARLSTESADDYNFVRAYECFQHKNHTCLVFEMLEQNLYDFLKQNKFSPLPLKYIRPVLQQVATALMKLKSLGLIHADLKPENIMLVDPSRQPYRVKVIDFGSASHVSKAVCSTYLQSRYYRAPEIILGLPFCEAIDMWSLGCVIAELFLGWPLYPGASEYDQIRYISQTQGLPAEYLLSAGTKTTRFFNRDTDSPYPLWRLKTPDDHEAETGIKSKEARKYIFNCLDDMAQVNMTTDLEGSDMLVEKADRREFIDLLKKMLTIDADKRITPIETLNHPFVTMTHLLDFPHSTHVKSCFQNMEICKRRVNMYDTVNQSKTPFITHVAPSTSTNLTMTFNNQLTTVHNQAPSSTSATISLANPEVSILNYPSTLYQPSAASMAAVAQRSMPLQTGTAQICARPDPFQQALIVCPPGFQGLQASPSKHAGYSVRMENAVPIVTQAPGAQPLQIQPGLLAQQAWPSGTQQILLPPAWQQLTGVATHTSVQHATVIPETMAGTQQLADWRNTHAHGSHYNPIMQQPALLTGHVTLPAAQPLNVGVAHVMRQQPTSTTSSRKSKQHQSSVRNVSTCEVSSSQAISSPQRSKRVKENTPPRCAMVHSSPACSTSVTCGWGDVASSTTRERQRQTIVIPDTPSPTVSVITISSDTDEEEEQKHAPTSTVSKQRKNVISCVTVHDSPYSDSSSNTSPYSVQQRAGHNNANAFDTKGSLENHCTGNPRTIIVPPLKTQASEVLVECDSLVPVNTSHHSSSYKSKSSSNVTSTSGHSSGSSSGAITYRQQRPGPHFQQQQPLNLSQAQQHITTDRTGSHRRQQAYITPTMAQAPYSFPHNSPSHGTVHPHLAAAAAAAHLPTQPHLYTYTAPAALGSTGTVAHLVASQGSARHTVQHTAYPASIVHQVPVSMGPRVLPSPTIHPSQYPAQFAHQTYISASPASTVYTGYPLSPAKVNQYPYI
smiles,measurement,setting,value
CC(C)(N)c1ccc(-c2nc3ccccc3nc2-c2ccccc2)cc1,residual activity,ROCK2 (human),92%
same,residual activity,CAMKK2 (human),108%
same,residual activity,DYRK3 (human); compound 1.0 µM,86%
same,residual activity,DYRK3 (human); compound 10.0 µM,75%
same,residual activity,PIM2 (human); compound 1.0 µM,88%
same,residual activity,PIM2 (human); compound 10.0 µM,89%
same,residual activity,BRSK2 (human),96%
same,residual activity,[1],64%
same,residual activity,MAPK11 (human),114%
same,residual activity,"PDPK1 (human); compound 1.0 µM, ATP 20 µM",96%
same,residual activity,"PDPK1 (human); compound 1.0 µM, ATP 50 µM",76%
same,residual activity,"PDPK1 (human); compound 10.0 µM, ATP 20 µM",95%
same,residual activity,CDK2 CCNA2 (human),97%
same,residual activity,HIPK3 (human); compound 1.0 µM,77%
same,residual activity,HIPK3 (human); compound 10.0 µM,66%
same,residual activity,PIM1 (human); compound 1.0 µM,80%
same,residual activity,PIM1 (human); compound 10.0 µM,57%
same,residual activity,SRC (chicken),118%
same,residual activity,MKNK2 (human),80%
same,residual activity,MAPK15 (human),71%
same,residual activity,NEK7 (human),91%
same,residual activity,HIPK2 (human); compound 1.0 µM,102%
same,residual activity,HIPK2 (human); compound 10.0 µM,85%
same,residual activity,LCK (mouse); compound 1.0 µM,84%
same,residual activity,LCK (mouse); compound 10.0 µM,65%
same,residual activity,CHEK1 (human),85%
same,residual activity,MKNK1 (human); compound 1.0 µM,77%
same,residual activity,MKNK1 (human); compound 10.0 µM,84%
same,residual activity,MAPK3 (human); compound 1.0 µM,93%
same,residual activity,MAPK3 (human); compound 10.0 µM,100%
same,residual activity,AURKC (human); compound 1.0 µM,75%
same,residual activity,AURKC (human); compound 10.0 µM,66%
same,residual activity,MYLK (human); compound 1.0 µM,79%
same,residual activity,MYLK (human); compound 10.0 µM,11%
same,residual activity,MAPK10 (human); compound 1.0 µM,88%
same,residual activity,MAPK10 (human); compound 10.0 µM,80%
same,residual activity,PRKCA (human); compound 1.0 µM,108%
same,residual activity,PRKCA (human); compound 10.0 µM,87%
same,residual activity,MELK (human); compound 1.0 µM,80%
same,residual activity,MELK (human); compound 10.0 µM,68%
same,residual activity,PRKCG (human); compound 1.0 µM,105%
same,residual activity,PRKCG (human); compound 10.0 µM,96%
same,residual activity,PAK7 (human); compound 1.0 µM,96%
same,residual activity,PAK7 (human); compound 10.0 µM,61%
same,residual activity,GSK3B (human),89%
same,residual activity,RPS6KA1 KD1 KD2 (human); compound 1.0 µM,98%
same,residual activity,RPS6KA1 KD1 KD2 (human); compound 10.0 µM,67%
